Assay results: patent US20050112573A1, “Method of detecting toxic substance” (priority 2001, published 2005)

Test system: yeast genes (level of expressed mRNA)
Assay: DNA chip analysis of expressed mRNA of yeast genes after 2 h culture with a toxic chemical substance
Format: cell-based, Saccharomyces cerevisiae S288C
Outline: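 Values are treated-to-control fluorescence ratios from a whole-yeast-genome DNA chip (65° C, over 12 h hybridization) using Cy3/Cy5-labelled cDNA from mRNA. Log-phase S288C cells in YPD at 25° C were exposed 2 h to a toxicant at sublethal, growth-inhibiting concentration.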

For γ-hexachlorocyclohexane [(7)], the “The level of expressed mRNA in the presence of chemical substance/” value (yeast gene YFL010C, ratio to control without chemical substance, 2 h culture) was 1.5, the “The level of expressed mRNA in the presence of chemical substance/” value (yeast gene YFL024C, ratio to control without chemical substance, 2 h culture) was 3.3 and the “The level of expressed mRNA in the presence of chemical substance/The level of expressed mRNA in the absence of chemical substance” value (yeast gene YFL028C) was 2.0. The “The level of expressed mRNA in the presence of chemical substance/” value (yeast gene YFL032W, ratio to control without chemical substance, 2 h culture) was 1.1, the “The level of expressed mRNA in the presence of chemical substance/The level of expressed mRNA in the absence of chemical substance” value (yeast gene YFL043C) was 1.8 and the “The level of expressed mRNA in the presence of chemical substance/in the absence of chemical substance” value (yeast gene YGL035C) was 1.2. The “The level of expressed mRNA in the presence of chemical substance/” value (yeast gene YGL037C, ratio to control without chemical substance, 2 h culture) was 2.9, the “The level of expressed mRNA in the presence of chemical substance/” value (yeast gene YGL047W, ratio to control without chemical substance, 2 h culture) was 1.7 and the “The level of expressed mRNA in the presence of chemical substance/” value (yeast gene YGL053W, ratio to control without chemical substance, 2 h culture) was 3.7. The “The level of expressed mRNA in the presence of chemical substance/” value (yeast gene YGL121C, ratio to control without chemical substance, 2 h culture) was 4.7, the “The level of expressed mRNA in the presence of chemical substance/The level of expressed mRNA in the absence of chemical substance” value (yeast gene YGL158W) was 1.3 and the “The level of expressed mRNA in the presence of chemical substance/” value (yeast gene YGL199C, ratio to control without chemical substance, 2 h culture) was 1.3. The “The level of expressed mRNA in the presence of chemical substance/The level of expressed mRNA in the absence of chemical substance” value (yeast gene YGL229C) was 2.2, the “The level of expressed mRNA in the presence of chemical substance/” value (yeast gene YGR101W, ratio to control without chemical substance, 2 h culture) was 1.5 and the “The level of expressed mRNA in the presence of chemical substance/” value (yeast gene YGR110W, ratio to control without chemical substance, 2 h culture) was 1.7. For the same substance, the “The level of expressed mRNA in the presence of chemical substance/” value (yeast gene YGR130C, ratio to control without chemical substance, 2 h culture) was 1.3, the “The level of expressed mRNA in the presence of chemical substance/The level of expressed mRNA in the absence of chemical substance” value (yeast gene YGR136W) was 1.5 and the “The level of expressed mRNA in the presence of chemical substance/” value (yeast gene YGR154C, ratio to control without chemical substance, 2 h culture) was 2.0. The “The level of expressed mRNA in the presence of chemical substance/The level of expressed mRNA in the absence of chemical substance” value (yeast gene YGR189C) was 0.6, the “The level of expressed mRNA in the presence of chemical substance/The level of expressed mRNA in the absence of chemical substance” value (yeast gene YGR213C) was 7.0 and the “The level of expressed mRNA in the presence of chemical substance/” value (yeast gene YGR221C, ratio to control without chemical substance, 2 h culture) was 1.2. For the same substance, the “The level of expressed mRNA in the presence of chemical substance/The level of expressed mRNA in the absence of chemical substance” value (yeast gene YGR257C) was 2.4, the “The level of expressed mRNA in the presence of chemical substance/in the absence of chemical substance” value (yeast gene YGR287C) was 2.2 and the “The level of expressed mRNA in the presence of chemical substance/The level of expressed mRNA in the absence of chemical substance” value (yeast gene YHR004C) was 1.5. For the same substance, the “The level of expressed mRNA in the presence of chemical substance/The level of expressed mRNA in the absence of chemical substance” value (yeast gene YHR071W) was 1.0, the “The level of expressed mRNA in the presence of chemical substance/” value (yeast gene YHR138C, ratio to control without chemical substance, 2 h culture) was 3.0 and the “The level of expressed mRNA in the presence of chemical substance/The level of expressed mRNA in the absence of chemical substance” value (yeast gene YHR139C) was 1.5. For the same substance, the “The level of expressed mRNA in the presence of chemical substance/The level of expressed mRNA in the absence of chemical substance” value (yeast gene YHR142W) was 0.9, the “The level of expressed mRNA in the presence of chemical substance/” value (yeast gene YHR199C, ratio to control without chemical substance, 2 h culture) was 1.1 and the “The level of expressed mRNA in the presence of chemical substance/” value (yeast gene YIL023C, ratio to control without chemical) was 1.2. For the same substance, the “The level of expressed mRNA in the presence of chemical substance/” value (yeast gene YIL041W, ratio to control without chemical substance, 2 h culture) was 0.8, the “The level of expressed mRNA in the presence of chemical substance/” value (yeast gene YIL087C, ratio to control without chemical substance, 2 h culture) was 1.8 and the “The level of expressed mRNA in the presence of chemical substance/The level of expressed mRNA in the absence of chemical substance” value (yeast gene YIL123W) was 0.5. The “The level of expressed mRNA in the presence of chemical substance/The level of expressed mRNA in the absence of chemical substance” value (yeast gene YIL140W) was 0.5, the “The level of expressed mRNA in the presence of chemical substance/” value (yeast gene YJL057C, ratio to control without chemical substance, 2 h culture) was 2.7 and the “The level of expressed mRNA in the presence of chemical substance/” value (yeast gene YJL066C, ratio to control without chemical substance, 2 h culture) was 1.6. For the same substance, the “The level of expressed mRNA in the presence of chemical substance/in the absence of chemical substance” value (yeast gene YJL070C) was 1.4, the “The level of expressed mRNA in the presence of chemical substance/” value (yeast gene YJL082W, ratio to control without chemical substance, 2 h culture) was 0.4 and the “The level of expressed mRNA in the presence of chemical substance/The level of expressed mRNA in the absence of chemical substance” value (yeast gene YJL089W) was 1.1. For the same substance, the “The level of expressed mRNA in the presence of chemical substance/The level of expressed mRNA in the absence of chemical substance” value (yeast gene YJL116C) was 0.8, the “The level of expressed mRNA in the presence of chemical substance/” value (yeast gene YJL151C, ratio to control without chemical substance, 2 h culture) was 1.4 and the “The level of expressed mRNA in the presence of chemical substance/” value (yeast gene YJL152W, ratio to control without chemical substance, 2 h culture) was 1.2. The “The level of expressed mRNA in the presence of chemical substance/” value (yeast gene YJL161W, ratio to control without chemical substance, 2 h culture) was 3.6, the “The level of expressed mRNA in the presence of chemical substance/in the absence of chemical substance” value (yeast gene YJL167W) was 1.5 and the “The level of expressed mRNA in the presence of chemical substance/” value (yeast gene YJL171C, ratio to control without chemical substance, 2 h culture) was 1.4. The “The level of expressed mRNA in the presence of chemical substance/in the absence of chemical substance” value (yeast gene YJL216C) was 1.5, the “The level of expressed mRNA in the presence of chemical substance/The level of expressed mRNA in the absence of chemical substance” value (yeast gene YJR004C) was 0.4 and the “The level of expressed mRNA in the presence of chemical substance/” value (yeast gene YJR008W, ratio to control without chemical substance, 2 h culture) was 2.9. For the same substance, the “The level of expressed mRNA in the presence of chemical substance/” value (yeast gene YJR054W, ratio to control without chemical) was 0.9, the “The level of expressed mRNA in the presence of chemical substance/The level of expressed mRNA in the absence of chemical substance” value (yeast gene YJR086W) was 1.7 and the “The level of expressed mRNA in the presence of chemical substance/The level of expressed mRNA in the absence of chemical substance” value (yeast gene YKL008C) was 1.4. The “The level of expressed mRNA in the presence of chemical substance/The level of expressed mRNA in the absence of chemical substance” value (yeast gene YKL013C) was 1.8, the “The level of expressed mRNA in the presence of chemical substance/The level of expressed mRNA in the absence of chemical substance” value (yeast gene YKL039W) was 2.0 and the “The level of expressed mRNA in the presence of chemical substance/The level of expressed mRNA in the absence of chemical substance” value (yeast gene YKL041W) was 1.0. The “The level of expressed mRNA in the presence of chemical substance/” value (yeast gene YKL071W, ratio to control without chemical substance, 2 h culture) was 3.7 and the “The level of expressed mRNA in the presence of chemical substance/” value (yeast gene YKL086W, ratio to control without chemical) was 0.7.
